Earlier results on one molecule are cited in US20050245902A1, “Substance delivery device” (priority 2002, published 2005).

Structures are written as SMILES.

The conditions of series [1]: in vivo.

As to `CC(=O)[C@H]1CC[C@H]2[C@@H]3CCC4=CC(=O)CC[C@]4(C)[C@H]3CC[C@]12C` [progesterone], the water solubility entry is listed as “poorly water-soluble”. For the same molecule, the half life in series [1] was 20 min.
